Assays:
[1] = target: T1, Adrenergic receptor alpha-2 (Homo sapiens, UniProt P08913+P18825+P18089); test: In vitro ability to inhibit norepinephrine binding to alpha-2 adrenergic receptor of guinea pig vas deferens; type: tissue-based, Cavia porcellus; details: target entry is the homologue from another species
T1 sequence (P08913 whole entry): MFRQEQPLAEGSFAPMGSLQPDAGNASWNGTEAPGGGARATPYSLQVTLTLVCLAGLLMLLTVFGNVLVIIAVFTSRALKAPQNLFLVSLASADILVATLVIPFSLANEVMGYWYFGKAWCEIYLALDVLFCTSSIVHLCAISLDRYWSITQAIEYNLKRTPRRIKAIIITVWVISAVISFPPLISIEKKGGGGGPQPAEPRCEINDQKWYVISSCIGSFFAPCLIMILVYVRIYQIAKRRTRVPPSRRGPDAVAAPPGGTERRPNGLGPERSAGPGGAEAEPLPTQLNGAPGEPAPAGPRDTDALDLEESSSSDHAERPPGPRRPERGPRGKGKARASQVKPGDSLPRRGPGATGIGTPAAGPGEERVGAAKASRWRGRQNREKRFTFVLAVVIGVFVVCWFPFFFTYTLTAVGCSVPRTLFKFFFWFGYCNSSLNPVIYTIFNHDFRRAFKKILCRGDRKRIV
T1 sequence (P18825 whole entry): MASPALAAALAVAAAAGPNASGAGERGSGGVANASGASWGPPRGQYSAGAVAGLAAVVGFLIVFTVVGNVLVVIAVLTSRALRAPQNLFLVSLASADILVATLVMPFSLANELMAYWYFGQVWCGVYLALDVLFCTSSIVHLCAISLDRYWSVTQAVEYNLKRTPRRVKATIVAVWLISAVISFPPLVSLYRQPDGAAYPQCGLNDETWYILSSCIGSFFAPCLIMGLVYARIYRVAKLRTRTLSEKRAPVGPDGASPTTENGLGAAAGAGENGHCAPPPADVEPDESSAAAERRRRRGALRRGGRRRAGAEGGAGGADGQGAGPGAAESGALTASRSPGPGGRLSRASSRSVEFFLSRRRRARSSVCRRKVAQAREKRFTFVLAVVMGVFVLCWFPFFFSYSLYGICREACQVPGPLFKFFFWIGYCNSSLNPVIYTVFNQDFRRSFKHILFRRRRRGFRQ
T1 sequence (P18089 whole entry): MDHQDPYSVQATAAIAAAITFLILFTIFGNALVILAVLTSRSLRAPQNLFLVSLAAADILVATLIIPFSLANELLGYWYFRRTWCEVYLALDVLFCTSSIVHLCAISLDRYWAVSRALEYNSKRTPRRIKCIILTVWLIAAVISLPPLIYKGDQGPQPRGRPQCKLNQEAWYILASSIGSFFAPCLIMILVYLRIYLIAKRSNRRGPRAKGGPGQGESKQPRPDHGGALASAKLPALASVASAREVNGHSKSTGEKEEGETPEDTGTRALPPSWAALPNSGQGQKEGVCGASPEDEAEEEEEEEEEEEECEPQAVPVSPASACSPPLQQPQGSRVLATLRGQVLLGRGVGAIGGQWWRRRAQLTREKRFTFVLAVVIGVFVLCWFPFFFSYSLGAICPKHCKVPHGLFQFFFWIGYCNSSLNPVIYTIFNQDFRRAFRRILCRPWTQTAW

[2] = target: T1, Adrenergic receptor alpha-2; test: Alpha-2-adrenolytic activity was assessed in vitro from the ability to inhibit norepinephrine binding to guinea pig vas deferens; set-up: species or system Cavia porcellus; details: target entry is the homologue from another species
[3] = target: T2, Adrenergic receptor alpha-2 (Rattus norvegicus, UniProt P22086+P19328+P22909); test: Alpha-2-adrenolytic activity was assessed from the ability to inhibit [3H]yohimbine binding to rat cerebral cortex preparation; type: tissue-based
T2 sequence (P22086 whole entry): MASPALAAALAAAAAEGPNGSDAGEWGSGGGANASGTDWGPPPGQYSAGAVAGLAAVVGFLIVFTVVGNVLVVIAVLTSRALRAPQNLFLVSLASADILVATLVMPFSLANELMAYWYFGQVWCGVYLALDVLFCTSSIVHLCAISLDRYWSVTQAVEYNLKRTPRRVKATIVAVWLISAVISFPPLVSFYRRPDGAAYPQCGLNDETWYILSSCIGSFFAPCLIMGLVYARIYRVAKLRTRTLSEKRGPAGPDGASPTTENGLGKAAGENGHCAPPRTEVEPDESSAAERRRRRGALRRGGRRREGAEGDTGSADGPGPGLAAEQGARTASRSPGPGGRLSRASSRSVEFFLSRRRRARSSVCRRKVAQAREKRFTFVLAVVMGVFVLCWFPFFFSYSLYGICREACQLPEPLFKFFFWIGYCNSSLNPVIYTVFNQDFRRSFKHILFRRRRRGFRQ
T2 sequence (P19328 whole entry): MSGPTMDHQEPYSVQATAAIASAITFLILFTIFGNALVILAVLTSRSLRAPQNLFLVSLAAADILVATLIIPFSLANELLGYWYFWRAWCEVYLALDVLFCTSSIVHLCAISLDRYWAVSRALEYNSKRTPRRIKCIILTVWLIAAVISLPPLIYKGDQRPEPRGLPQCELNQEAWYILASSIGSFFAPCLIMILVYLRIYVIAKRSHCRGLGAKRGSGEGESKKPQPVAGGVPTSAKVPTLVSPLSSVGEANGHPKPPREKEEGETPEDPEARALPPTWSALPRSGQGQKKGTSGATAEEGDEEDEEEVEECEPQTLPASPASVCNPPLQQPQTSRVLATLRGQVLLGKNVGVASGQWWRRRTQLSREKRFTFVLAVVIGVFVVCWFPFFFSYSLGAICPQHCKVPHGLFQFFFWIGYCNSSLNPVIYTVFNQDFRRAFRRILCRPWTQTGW
T2 sequence (P22909 whole entry): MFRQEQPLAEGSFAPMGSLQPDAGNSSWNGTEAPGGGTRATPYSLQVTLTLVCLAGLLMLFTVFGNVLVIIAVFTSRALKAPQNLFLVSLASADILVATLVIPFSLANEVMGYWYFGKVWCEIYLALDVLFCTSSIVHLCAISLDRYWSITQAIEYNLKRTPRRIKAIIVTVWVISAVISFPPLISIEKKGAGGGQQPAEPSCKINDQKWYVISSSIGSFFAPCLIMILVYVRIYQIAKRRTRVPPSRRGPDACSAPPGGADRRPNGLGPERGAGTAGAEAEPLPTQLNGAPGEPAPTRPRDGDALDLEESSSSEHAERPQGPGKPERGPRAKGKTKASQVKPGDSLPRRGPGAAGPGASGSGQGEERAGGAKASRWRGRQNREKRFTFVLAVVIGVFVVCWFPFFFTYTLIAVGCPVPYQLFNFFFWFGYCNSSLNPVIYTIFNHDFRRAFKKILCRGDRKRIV

| IC50 [1] | Structure (SMILES) | also measured |
| --- | --- | --- |
|  | CO/C(O)=C1\C(C)=NC(C)=C(C(=O)OCCN(C)C(C)COc2ccccc2)C1c1cccc([N+](=O)[O-])c1.Cl (stereo not given) | pA2 [1]: 6.7 |
| > 0.0001 M | COC(=O)C1=C(C)NC(C)=C(C(=O)OCCN(C)C[C@H]2COc3ccccc3O2)[C@@H]1c1cccc([N+](=O)[O-])c1.Cl (stereo in doubt; 6b) |  |
| > 1e-06 M | CO/C(O)=C1\C(C)=NC(C)=C(C(=O)OCCN(C)CC2COc3ccccc3O2)C1c1ccccc1[N+](=O)[O-] (stereo not given) |  |
| > 0.0001 M | CO/C(O)=C1\C(C)=NC(C)=C(C(=O)OCCN(C)C(c2ccccc2)C2CCCCC2)C1c1cccc([N+](=O)[O-])c1.Cl (stereo not given) |  |
| >> 1e-6 M | CO/C(O)=C1\C(C)=NC(C)=C(C(=O)OCCN2CCC(n3c(O)nc4ccccc43)CC2)C1c1cccc([N+](=O)[O-])c1 (stereo not given) |  |
| > 1e-06 M | CO/C(O)=C1\C(C)=NC(C)=C(C(=O)OCCN(C)CC2COc3ccccc3O2)C1c1cccc([N+](=O)[O-])c1.Cl (stereo not given) |  |
|  | CC1=NC(C)=C(C(=O)OC(C)CN(C)CC2COc3ccccc3O2)C(c2cccc([N+](=O)[O-])c2)/C1=C(\O)OC(C)C.Cl (stereo not given) | IC50 [2]: >> 1e-6 M; IC50 [3]: 2000 nM |
| >> 1e-6 M | COC(=O)C1=C(C)NC(C)=C(C(=O)OCCN(C)C[C@H]2COc3ccccc3O2)[C@@H]1c1cccc([N+](=O)[O-])c1.Cl (stereo in doubt; 6a) |  |
| >> 0.00001 M | CO/C(O)=C1\C(C)=NC(C)=C(C(=O)OC(C)CN(C)CC2COc3ccccc3O2)C1c1cccc([N+](=O)[O-])c1.Cl (stereo not given) |  |

From ChEMBL document CHEMBL1124620, “New 1,4-dihydropyridine derivatives combining calcium antagonism and alpha-adrenolytic properties” (J Med Chem, 1989)
